Test results published in PMC7326275 (PLoS Pathogens, 2020).
Several values for one entry are separate records, joined by “and”; a condition that tells them apart may be missing. Equal values may be shown once. Read-outs that look alike come from different tables or passages of the source. Marks after values point to notes of the source that are not given here.

Key:
[1] = test system: H1N1 virus (A/Mississippi/3/2001); type: in vivo
[2] = test system: H1N1pdm09 virus (A/Perth/265/2009); type: in vivo
[3] = test system: H3N2 virus (A/Fukui/20/2004); type: in vivo
[4] = test system: B virus (B/Minnesota/23/2015); type: in vivo
H1N1pdm09 virus = type: in vivo
[5] = test system: nine different influenza viruses; assay: animal or person; type: in vivo; conditions: Mustela putorius, estimated from non-linear regression model, ferrets
[6] = test system: influenza NA protein (nine different influenza viruses); assay: Fluorometric NA inhibition assay, summary over viruses
[7] = B, OST dosed ferrets, maximum loss from baseline

CCOC(=O)C1=C[C@@H](OC(CC)CC)[C@H](NC(C)=O)[C@@H](N)C1 [OST, oseltamivir] was tested, and the “Total Score (clinical signs)” value ([1]; H1N1, OST dosed ferrets) was 3, the Temperature clinical score ([1]; H1N1, OST dosed ferrets, maximum increase from baseline) was 1 (1.1–1.5) and the “Activity loss clinical score” value ([1]; H1N1, OST dosed ferrets, maximum loss from baseline) was 1 (21–40). For the same compound, the “Nasal inflammation Cell score” value ([1]; H1N1, OST dosed ferrets, nasal wash, maximum cell count) was 1 (1 to 2 x10^6), the “Nasal inflammation Protein score” value ([1]; H1N1, OST dosed ferrets, nasal wash, maximum protein concentration) was 0 (<500) and the “difference in %AUC for weight (OST vs placebo)” value ([1]; H1N1, ferrets) was 2.5%. For the same compound, the “Duration of Shedding” value ([1]; H1N1, ferrets, OST 5 mg/kg twice daily) was 0.0 ± 0.0 days, the “AUC (total area under the viral shedding curve, raw data)” value ([1]; H1N1, ferrets, OST 5 mg/kg twice daily, mean ± SD) was 0.0 ± 0.0 and the “difference in %AUC for cell count (OST vs placebo)” value ([1]; H1N1, ferrets, nasal wash) was 67%. The “difference in %AUC for protein concentration (OST vs placebo)” value ([1]; H1N1, ferrets, nasal wash) was 74%, the “% Ferrets Infected” value ([1]; in vivo) was 0 (0/4) % and the “Weight loss clinical score” value ([1]; in vivo) was 0. For the same compound, the “activity levels of OST dosed ferrets” value ([1]; in vivo) was “fluctuated around pre-exposure baseline levels”, the “ferrets infected (number infected/number exposed)” value ([1]; in vivo) was 0/4 and the “Total Score (clinical signs)” value ([2]; H1N1pdm09, OST dosed ferrets) was 6. The Temperature clinical score ([2]; H1N1pdm09, OST dosed ferrets, maximum increase from baseline) was 2 (1.5–2.0), the “Activity loss clinical score” value ([2]; H1N1pdm09, OST dosed ferrets, maximum loss from baseline) was 1 (21–40) and the “Nasal inflammation Cell score” value ([2]; H1N1pdm09, OST dosed ferrets, nasal wash, maximum cell count) was 1 (1 to 2 x10^6). For the same compound, the “Nasal inflammation Protein score” value ([2]; H1N1pdm09, OST dosed ferrets, nasal wash, maximum protein concentration) was 2 (1001–1500), the “difference in %AUC for activity levels (OST vs placebo)” value ([2]; H1N1pdm09, ferrets) was 53% and the “Duration of Shedding” value ([2]; H1N1pdm09, ferrets, OST 5 mg/kg twice daily) was 3.5 ± 0.7 days. The “AUC (total area under the viral shedding curve, raw data)” value ([2]; H1N1pdm09, ferrets, OST 5 mg/kg twice daily, mean ± SD) was 9.3 ± 12.7, the “difference in %AUC for protein concentration (OST vs placebo)” value ([2]; H1N1pdm09, ferrets, nasal wash) was 56% and the “% Ferrets Infected” value ([2]; in vivo) was 50% and 50 (2/4) %. The “Peak Viral Titre” value ([2]; in vivo) was 4.2 ± 0.9 Log10 TCID50/ml, the “Weight loss clinical score” value ([2]; in vivo) was 0 and the “difference in %AUC for weight change (OST vs placebo)” value ([2]; in vivo) was 4.9%. The “Total Score (clinical signs)” value ([3]; H3N2, OST dosed ferrets) was 1, the Temperature clinical score ([3]; H3N2, OST dosed ferrets, maximum increase from baseline) was 0 (<1) and the “Activity loss clinical score” value ([3]; H3N2, OST dosed ferrets, maximum loss from baseline) was 1 (21–40). The “Nasal inflammation Cell score” value ([3]; H3N2, OST dosed ferrets, nasal wash, maximum cell count) was 0 (<1X10^6), the “Nasal inflammation Protein score” value ([3]; H3N2, OST dosed ferrets, nasal wash, maximum protein concentration) was 0 (<500) and the “Duration of Shedding” value ([3]; H3N2, ferrets, OST 5 mg/kg twice daily) was 2.0 ± 0.8 days. The “AUC (total area under the viral shedding curve, raw data)” value ([3]; H3N2, ferrets, OST 5 mg/kg twice daily, mean ± SD) was 3.0 ± 3.7, the “% Ferrets Infected” value ([3]; in vivo) was 50 (4/8) % and the “Peak Viral Titre” value ([3]; in vivo) was 3.0 ± 0.8 Log10 TCID50/ml. For the same compound, the “Weight loss clinical score” value ([3]; in vivo) was 0, the “ferrets prevented from shedding infectious virus” value ([3]; in vivo) was 50% and the “reduction of %AUC for cell counts (OST vs placebo)” value ([3]; in vivo) was 69.2%. The “reduction of %AUC for protein concentration (OST vs placebo)” value ([3]; in vivo) was 52.4%, the “Total Score (clinical signs)” value ([4]; B, OST dosed ferrets) was 3 and the Temperature clinical score ([4]; B, OST dosed ferrets, maximum increase from baseline) was 0 (<1). The “Activity loss clinical score” value [4, 7] was 1 (21–40), the “Weight loss clinical score” value [4, 7] was 0 and the “Nasal inflammation Cell score” value ([4]; B, OST dosed ferrets, nasal wash, maximum cell count) was 1 (1 to 2 x10^6). For the same compound, the “Nasal inflammation Protein score” value ([4]; B, OST dosed ferrets, nasal wash, maximum protein concentration) was 1 (500–1000), the “% Ferrets Infected” value ([4]; B, ferrets, OST 5 mg/kg orally twice daily) was 100 (4/4) % and the “Duration of Shedding” value ([4]; B, ferrets, OST 5 mg/kg twice daily) was 5.5 ± 0.6 days. The “AUC (total area under the viral shedding curve, raw data)” value ([4]; B, ferrets, OST 5 mg/kg twice daily, mean ± SD) was 12.9 ± 1.9, the “Peak Viral Titre” value ([4]; in vivo) was 3.7 ± 0.4 Log10 TCID50/ml and the “body weight or temperature, OST- vs placebo-treated animals” value (H1N1pdm09 virus; H1N1pdm09, macaques, OST 3 mg/kg orally) was “no significant differences”. For the same compound, the “viral titre lower in tracheal lavages of OST dosed macaques compared to placebo” value (H1N1pdm09 virus; cynomolgus monkey, in vivo) was 1.9 logs, the “viral titres in nasal wash and tracheal lavages, OST vs placebo” value (H1N1pdm09 virus; cynomolgus monkey, in vivo) was “not significantly different” and the IC50 ([5]; read-out: IC50 corresponding to a 50% reduction in OST efficacy against viral shedding) was 14.6 nM. It also gave an IC50 ([5]; read-out: IC50 corresponding to a 90% loss in oseltamivir efficacy against viral shedding) of 68.2 nM, an IC50 ([6]; read-out: OST IC50 values, range over nine different influenza viruses, nine viruses of the ferret study) of 0.2 to 414 nM and an IC50 ([6]; read-out: normal IC50 values of wild-type influenza A viruses, wild-type influenza A viruses) of roughly 1 nM.
